The source of these data is US8987287B2, “Spirocyclic morphinans and their use” (Purdue Pharma L.P., priority 2012, dated 2015).

Molecules are shown by their SMILES.

The target in one test is δ opioid receptor (Homo sapiens (Human), UniProt P41143). Description: δ-opioid receptor radioligand ([3H]-Naltrindole) dose-displacement binding assay. To be noted: binding affinity. As for the experimental part: δ-Opioid Receptor Binding Assay Procedures: δ-Opioid Receptor Binding Assay Procedures were conducted as follows. Radioligand dose-displacement assays used 0.3 nM [^3H]-Naltrindole (Perkin Elmer, Shelton, Conn.; 33.0 Ci/mmole) with 5 μg membrane protein (Perkin Elmer, Shelton, Conn.) in a final volume of 500 μl binding buffer (5 mM MgCl2, 5% DMSO, 50 mM Trizma base, pH 7.4). Non-specific binding was determined in the presence of 25 μM unlabeled naloxone. All reactions were performed in 96-deep well polypropylene plates for 1 hour at a temperature of about 25° C. Binding reactions were terminated by rapid filtration onto 96-well Unifilter GF/C filter plates (Perkin Elmer, Shelton, Conn.) presoaked in 0.5% polyethylenimine (Sigma). Harvesting was performed using a 96-well tissue harvester (Perkin Elmer, Shelton, Conn.) followed by five filtration washes with 500 μl ice-cold binding buffer. Filter plates were subsequently dried at 50° C. for 1-2 hours. Fifty μl/well scintillation cocktail (Perkin Elmer, Shelton, Conn.) was added and plates were counted in a Packard Top-Count for 1 min/well.
δ opioid receptor, sequence (P41143 whole entry, looked up): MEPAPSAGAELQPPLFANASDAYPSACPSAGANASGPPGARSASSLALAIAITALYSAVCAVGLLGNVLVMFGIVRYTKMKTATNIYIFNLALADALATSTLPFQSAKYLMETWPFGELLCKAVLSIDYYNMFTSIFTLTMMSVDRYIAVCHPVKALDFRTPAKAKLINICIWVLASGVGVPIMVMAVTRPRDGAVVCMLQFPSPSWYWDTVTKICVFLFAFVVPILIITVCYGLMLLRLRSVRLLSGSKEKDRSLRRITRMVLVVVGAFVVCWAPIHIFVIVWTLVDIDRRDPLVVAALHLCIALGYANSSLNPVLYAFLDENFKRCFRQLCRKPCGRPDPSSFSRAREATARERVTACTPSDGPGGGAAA
(§1) In TABLE 1, binding affinity of certain Compounds of the Invention to the μ-, δ- and κ-opioid receptors was determined as described above.

Another test deals with μ-opioid receptor (Homo sapiens (Human), UniProt P35372). The experiment in a line: μ-opioid receptor radioligand ([3H]-diprenorphine) dose-displacement binding assay. The settings on record: binding affinity, read-out: Opioid Receptor Ki (nM) μ. Here is the method:
μ-Opioid Receptor Binding Assay Procedures: Radioligand dose-displacement binding assays for μ-opioid receptors used 0.3 nM [^3H]-diprenorphine (Perkin Elmer, Shelton, Conn.), with […] membrane protein/well in a final volume of 500 μl binding buffer (10 mM MgCl2, 1 mM EDTA, 5% DMSO, 50 mM HEPES, pH 7.4). Reactions were carried out in the absence or presence of increasing concentrations of unlabeled naloxone. All reactions were conducted in 96-deep well polypropylene plates for 2 hours at room temperature. Binding reactions were terminated by rapid filtration onto 96-well Unifilter GF/C filter plates (Perkin Elmer, Shelton, Conn.), presoaked in 0.5% polyethylenimine using a 96-well tissue harvester (Perkin Elmer, Shelton, Conn.) followed by performing three filtration washes with 500 μl of ice-cold binding buffer. Filter plates were subsequently dried at 50° C. for 2-3 hours. BetaScint scintillation cocktail (Perkin Elmer, Shelton, Conn.) was added (50 μl/well), and plates were counted using a Packard Top-Count for 1 min/well. The data were analyzed using the one-site competition curve fitting functions in GraphPad PRISM™ v. 3.0 or higher (San Diego, Calif.), or an in-house function for one-site competition curve-fitting.
as §1

In the next test the target is κ opioid receptor (Homo sapiens (Human), UniProt P41145). The experiment in a line: κ-opioid receptor [35S]GTPγS functional assay, HEK-293 or CHO cells. The format is biochemical. The settings on record: for Emax: relative to U69,593, HEK-293 or CHO cells. As for the experimental part: κ-Opioid Receptor Functional Assay Procedures: Functional [^35S]GTPγS binding assays were conducted as follows. κ opioid receptor membrane solution was prepared by sequentially adding final concentrations of 0.026 μg/μl κ membrane protein (in-house), 10 μg/mL saponin, 3 μM GDP and 0.20 nM [^35S]GTPγS to binding buffer (100 mM NaCl, 10 mM MgCl2, 20 mM HEPES, pH 7.4) on ice. The prepared membrane solution (190 μl/well) was transferred to 96-shallow well polypropylene plates containing 10 μl of 20× concentrated stock solutions of agonist prepared in DMSO. Plates were incubated for 30 min at a temperature of about 25° C. with shaking. Reactions were terminated by rapid filtration onto 96-well Unifilter GF/B filter plates (Perkin Elmer, Shelton, Conn.) using a 96-well tissue harvester (Packard) and followed by three filtration washes with 200 μl ice-cold binding buffer (10 mM NaH2PO4, 10 mM Na2HPO4, pH 7.4). Filter plates were subsequently dried at 50° C. for 2-3 hours. Fifty μl/well scintillation cocktail (Perkin Elmer, Shelton, Conn.) was added and plates were counted in a Packard Top-Count for 1 min/well.
κ-Opioid Receptor Functional Data: κ GTP EC50 is the concentration of a compound providing 50% of the maximal response for the compound at a κ receptor.
κ GTP Emax (%) is the maximal effect elicited by a compound relative to the effect elicited by U69,593.
In TABLE 2, activity response of certain Compounds of the Invention to the μ-, δ- and κ-opioid receptors was determined as described above for functional assays using HEK-293 or CHO cells.

The Ki is a dissociation constant, usually derived from enzyme kinetics or from competition with a known ligand. The EC50 is the concentration giving half of the maximal effect. For orientation: Emax means the size of the effect at its maximum, as opposed to the concentration needed. Regarding `O=C1NC(=O)[C@@]2(CC[C@@]3(O)[C@H]4Cc5ccc(O)cc5[C@@]3(CCN4CC3CC3)C2)N1` [Compound 3, (4bR,4′S,8aS,9R)-11-(cyclopropylmethyl)-3,8a-dihydroxy-5,7,8,8a,9,10-hexahydrospiro[9,4b-(epiminoethano)phenanthrene-6,4′-imidazolidine]-2′,5′-dione], the Ki was determined as 177 ± 36.7 nM at δ opioid receptor and 15.9 ± 3.02 nM at μ-opioid receptor. Besides, the concentration for a half-maximal effect (EC50) at κ opioid receptor was determined as 54.8 ± 12.6 nM. At κ opioid receptor, this molecule displayed an Emax of 80.2 ± 3.32%.
The matching figures for `O=C1NC[C@@]2(CC[C@@]3(O)[C@H]4Cc5ccc(O)cc5[C@@]3(CCN4CC3CC3)C2)N1` [Compound 5, (4bR,4′S,8aS,9R)-11-(cyclopropylmethyl)-3,8a-dihydroxy-5,7,8,8a,9,10-hexahydrospiro[9,4b-(epiminoethano)phenanthrene-6,4′-imidazolidin]-2′-one]: 272 ± 25.3 nM, 3.55 ± 0.77 nM, 67.2 ± 8.88 nM and 67.33 ± 0.33%.
